The values below come from PubChem BioAssay AID192 (DTP/NCI, 2004).

Toxic doses and inconclusive results are not listed. Numbered stars: 1 amine (or outer) side, 2 acyl side, 3 side chain; on linkers, the order of the positions; unused ones are H or OH. Square brackets hold non-standard residues; d marks the D form. Peptide text beside a SMILES is read from it. * marks the point of attachment. X6 = CCC(=O)CC1CC(C)CC(C(=O)[*:2])N1[*:1]; X5 = CCCCCCCCC(C)C(=O)*; Aib = CC(C)(N)C(=O)O; X7 = CC(CN(C)CCO)N*

The subject of the experiment is BDF1 mice, B16 melanoma ip, median survival T/C. In words: NCI In Vivo Anticancer Drug Screen. Data for tumor model B16 Melanoma (intraperitoneal) in B6D2F1 (BDF1) mice. To be noted: endpoint: median survival time, higher = longer survival. Here is the method:
The antitumor activity of compounds was measured in mice bearing transplantable tumors. Survival or tumor size were measured and the results are expressed as the measurement made in the treated group (T) divided by the measurement made in the vehicle treated control group (C). The tumor model used in this assay is B16 Melanoma (intraperitoneal) in B6D2F1 (BDF1) mice

[1] abbreviates: dose: 0.25 mg/kg/injection, schedule: Q01DX009 (ip), vehicle: Klucel (hydroxypropylcellulose) (HPC).
The mark [2] stands for this setting: dose: 0.5 mg/kg/injection, schedule: Q01DX009 (ip), vehicle: Klucel (hydroxypropylcellulose) (HPC).
Setting [3] is: dose: 12.5 mg/kg/injection, schedule: Q01DX009 (ip), vehicle: Klucel (hydroxypropylcellulose) (HPC).
[4] abbreviates: dose: 100.0 mg/kg/injection, schedule: Q01DX009 (ip), vehicle: saline with Tween-80.
Setting [5] is: dose: 100.0 mg/kg/injection, schedule: Q01DX009 (ip), vehicle: Klucel (hydroxypropylcellulose) (HPC).
[6] abbreviates: dose: 200.0 mg/kg/injection, schedule: Q01DX009 (ip), vehicle: Klucel (hydroxypropylcellulose) (HPC).
Setting [7] is: dose: 25.0 mg/kg/injection, schedule: Q01DX009 (ip), vehicle: Klucel (hydroxypropylcellulose) (HPC).
The mark [8] stands for this setting: dose: 50.0 mg/kg/injection, schedule: Q01DX009 (ip), vehicle: Klucel (hydroxypropylcellulose) (HPC).
Setting [9] is: dose: 100.0 mg/kg/injection, schedule: Q04DX003 (ip), vehicle: saline with Tween-80.
Where [10] appears, read: dose: 200.0 mg/kg/injection, schedule: Q04DX003 (ip), vehicle: saline with Tween-80.
The mark [11] stands for this setting: dose: 400.0 mg/kg/injection, schedule: Q04DX003 (ip), vehicle: saline with Tween-80.
[12] abbreviates: dose: 100.0 mg/kg/injection, schedule: Q04DX003 (ip), vehicle: Klucel (hydroxypropylcellulose) (HPC).
Where [13] appears, read: dose: 200.0 mg/kg/injection, schedule: Q04DX003 (ip), vehicle: Klucel (hydroxypropylcellulose) (HPC).
Setting [14] is: dose: 400.0 mg/kg/injection, schedule: Q04DX003 (ip), vehicle: Klucel (hydroxypropylcellulose) (HPC).
Setting [15] is: dose: 12.5 mg/kg/injection, schedule: Q01DX009 (ip), vehicle: saline with Tween-80.
The mark [16] stands for this setting: dose: 25.0 mg/kg/injection, schedule: Q01DX009 (ip), vehicle: saline with Tween-80.
Where [17] appears, read: dose: 50.0 mg/kg/injection, schedule: Q01DX009 (ip), vehicle: saline with Tween-80.
Where [18] appears, read: dose: 200.0 mg/kg/injection, schedule: Q01DX009 (ip), vehicle: saline with Tween-80.

Turning to `NCCNc1ccc(NCCN)c2c1C(=O)c1ccccc1C2=O`, the T/C by setting is: (dose: 4.0 mg/kg/injection, schedule: Q01DX009 (ip), vehicle: acid diluted with saline) 210 % of control; (dose: 8.0 mg/kg/injection, schedule: Q01DX009 (ip), vehicle: acid diluted with saline) 218 % of control.

`CC[C@H]1CN2CCc3cc(OC)c(OC)cc3[C@@H]2C[C@@H]1C[C@H]1NCCc2c1[nH]c1ccc(O)cc21`: the T/C was 111 % of control under setting [1]; 114 % of control under setting [2]; 123 % of control (dose: 1.0 mg/kg/injection, schedule: Q01DX009 (ip), vehicle: Klucel (hydroxypropylcellulose) (HPC)).

`CN(C)S(=O)(=O)c1ccc2c(c1)N(CCCN1CCN(S(C)(=O)=O)CC1)c1ccccc1S2`: the T/C runs as follows: (dose: 0.78 mg/kg/injection, schedule: Q01DX009 (ip), vehicle: Klucel (hydroxypropylcellulose) (HPC)) 87 % of control; (dose: 1.56 mg/kg/injection, schedule: Q01DX009 (ip), vehicle: Klucel (hydroxypropylcellulose) (HPC)) 90 % of control; (dose: 3.12 mg/kg/injection, schedule: Q01DX009 (ip), vehicle: Klucel (hydroxypropylcellulose) (HPC)) 90 % of control; under setting [3], 95 % of control.

Take `C=CCN1C(=O)C=CC1=O`: the T/C by setting is: (dose: 0.75 mg/kg/injection, schedule: Q01DX009 (ip), vehicle: saline) 102 % of control; (dose: 1.5 mg/kg/injection, schedule: Q01DX009 (ip), vehicle: saline) 93 % of control.

For the compound `CCCC(=O)OC1C=C2N3C(=O)C4CC56C(=CC(OC(C)=O)C7OC75)N4C(=O)C3CC26C2OC12` (stereo not drawn), the T/C (dose: 0.13 mg/kg/injection, schedule: Q01DX009 (ip), vehicle: Klucel (hydroxypropylcellulose) (HPC)) was 90 % of control; the T/C under setting [1] is 101 % of control; the T/C under setting [2] was 90 % of control.

Turning to `NNc1ncnc2nc[nH]c12`, the T/C is 108 % of control (dose: 12.5 mg/kg/injection, schedule: Q01DX009 (ip), vehicle: saline); 120 % of control (dose: 25.0 mg/kg/injection, schedule: Q01DX009 (ip), vehicle: saline); 100 % of control (dose: 50.0 mg/kg/injection, schedule: Q01DX009 (ip), vehicle: saline).

On to `CCOc1ccc(NC(=O)Nc2ccccc2)cc1`, for which the T/C under setting [4] was 86 % of control.

`CCCCCCCCCCCCCCCCOc1ccc(C(=O)CC(=O)OC)cc1`: the T/C runs as follows: under setting [5], 105 % of control; under setting [6], 94 % of control.

In the case of `COc1ccc(NC(=O)Nc2cc(Cl)ccc2OC)cc1`, the T/C under setting [7] was 92 % of control and the T/C under setting [8] was 92 % of control.

In the case of `CC(=O)c1ccccc1OCC(O)CN1CCN(c2cccc(C(F)(F)F)c2)CC1` (stereo not drawn), the T/C was 102 % of control under setting [9], 93 % of control under setting [10] and 91 % of control under setting [11].

`CCOC(=O)Nc1ccccc1`: the T/C was 95 % of control (dose: 100.0 mg/kg/injection, schedule: Q04DX003 (ip), vehicle: gum acacia) and 102 % of control (dose: 200.0 mg/kg/injection, schedule: Q04DX003 (ip), vehicle: gum acacia).

Consider `CC1OC(OCc2ccc(-c3ccccc3)cc2)CC(N)C1O` (stereo not drawn), for which the T/C by setting is: (dose: 1.56 mg/kg/injection, schedule: Q01DX009 (ip), vehicle: water) 105 % of control; (dose: 3.13 mg/kg/injection, schedule: Q01DX009 (ip), vehicle: water) 95 % of control; (dose: 6.25 mg/kg/injection, schedule: Q01DX009 (ip), vehicle: water) 99 % of control; (dose: 12.5 mg/kg/injection, schedule: Q01DX009 (ip), vehicle: water) 104 % of control; (dose: 25.0 mg/kg/injection, schedule: Q01DX009 (ip), vehicle: water) 87 % of control.

`NC(=S)Nc1cccc(Cl)c1`: the T/C was 106 % of control under setting [3], 102 % of control under setting [7] and 100 % of control under setting [8].

Take `CCCCCCCCC(C)C(=O)N1CCCC1C(=O)N1C(CC(=O)CC)CC(C)CC1C(=O)NC(C)C(=O)NC(C)(C)C(=O)NC(C)(C)C(=O)NC(C(=O)NC(C)C(=O)NC(C)(C)C(=O)NC(C)(C)C(=O)NC(C)CN(C)CCO)C(C)CC` (stereo not drawn) (X5-P[X6]A[Aib][Aib]IA[Aib][Aib]-X7; configuration not given here): the T/C is 102 % of control (dose: 0.63 mg/kg/injection, schedule: Q01DX009 (ip), vehicle: Klucel (hydroxypropylcellulose) (HPC)); 90 % of control (dose: 1.25 mg/kg/injection, schedule: Q01DX009 (ip), vehicle: Klucel (hydroxypropylcellulose) (HPC)); 95 % of control (dose: 2.5 mg/kg/injection, schedule: Q01DX009 (ip), vehicle: Klucel (hydroxypropylcellulose) (HPC)).

Consider `CC1(C)c2ccccc2C(C)(O)c2ccccc21`, for which the T/C is 102 % of control (dose: 50.0 mg/kg/injection, schedule: Q04DX003 (ip), vehicle: saline with Tween-80); 111 % of control under setting [9]; 94 % of control under setting [10].

Turning to `O=C(NP(=O)(N1CC1)N1CC1)c1cc(I)ccc1I`, the T/C was 100 % of control (dose: 1.0 mg/kg/injection, schedule: Q02DX009 (ip), vehicle: saline with Tween-80); 104 % of control (dose: 1.0 mg/kg/injection, schedule: Q02DX009 (ip), vehicle: saline); 106 % of control (dose: 2.0 mg/kg/injection, schedule: Q02DX009 (ip), vehicle: saline with Tween-80); 107 % of control (dose: 2.0 mg/kg/injection, schedule: Q02DX009 (ip), vehicle: saline); 93 % of control (dose: 4.0 mg/kg/injection, schedule: Q02DX009 (ip), vehicle: saline with Tween-80); 98 % of control (dose: 4.0 mg/kg/injection, schedule: Q02DX009 (ip), vehicle: saline). Also, the T/C reads like this: (dose: 8.0 mg/kg/injection, schedule: Q02DX009 (ip), vehicle: saline with Tween-80) 120 % of control; (dose: 8.0 mg/kg/injection, schedule: Q02DX009 (ip), vehicle: saline) 112 % of control; (dose: 16.0 mg/kg/injection, schedule: Q02DX009 (ip), vehicle: saline) 116 % of control; (dose: 32.0 mg/kg/injection, schedule: Q02DX009 (ip), vehicle: saline) 107 % of control; (dose: 64.0 mg/kg/injection, schedule: Q02DX009 (ip), vehicle: saline with Tween-80) 92 % of control; (dose: 64.0 mg/kg/injection, schedule: Q02DX009 (ip), vehicle: saline) 101 % of control.

On to `Cc1cccc(NC(=O)NC(C)C)c1C`, for which the T/C reads like this: under setting [5], 100 % of control; under setting [12], 103 % of control; under setting [6], 96 % of control; under setting [13], 107 % of control; (dose: 400.0 mg/kg/injection, schedule: Q01DX009 (ip), vehicle: Klucel (hydroxypropylcellulose) (HPC)) 93 % of control; under setting [14], 100 % of control.

Regarding `Cc1noc2nccnc12`, the T/C reads like this: under setting [15], 92 % of control; under setting [16], 95 % of control; under setting [17], 88 % of control.

Turning to `Cc1cc(Cl)ccc1NC(=O)CCl`, the T/C is 100 % of control under setting [4] and 95 % of control under setting [18].

For the compound `O=[N+]([O-])c1ccc([I+]c2ccccc2)cc1`, the T/C reads like this: under setting [3], 115 % of control; under setting [15], 113 % of control; under setting [7], 118 % of control; under setting [16], 112 % of control.

In the case of `CNc1ccc(C(=O)O)cc1OC`, the T/C was 95 % of control under setting [9], 91 % of control under setting [10] and 90 % of control under setting [11].

With `O=C(NC(Cc1ccc(O)cc1)C(=O)O)c1ccccc1` (stereo not drawn), the T/C by setting is: under setting [17], 105 % of control; under setting [4], 100 % of control; under setting [18], 89 % of control; (dose: 400.0 mg/kg/injection, schedule: Q01DX009 (ip), vehicle: saline with Tween-80) 88 % of control.

For the compound `Cc1nc(N)[nH]c(=O)c1Br`, the T/C is 97 % of control under setting [12], 93 % of control under setting [13] and 89 % of control under setting [14].
